Experimental data from the NIST ThermoML archive (doi:10.1021/je3003578).
Numbers after ± are expanded uncertainties.

Columns and labels:
[1] = 101 kPa, Liquid
[2] = xn = mol fraction of the nth substance listed; settings: 283.15 K; 101 kPa; Liquid; x2 = 0

| mass density ([1]; 283.15 K) | mass density ([1]; 288.15 K) | mass density ([1]; 293.15 K) | mass density ([1]; 298.15 K) | mass density ([1]; 303.15 K) | mass density [2] | Compound |
| --- | --- | --- | --- | --- | --- | --- |
| 865.36 ± 0.82 kg/m3 | 860.63 ± 0.83 kg/m3 | 855.715 ± 0.84 kg/m3 | 851.018 ± 0.86 kg/m3 | 846.075 ± 0.87 kg/m3 |  | CCOCCCN [3-ethoxy-1-propanamine] |
|  |  |  |  |  | 999.699 ± 0.3 kg/m3 | O [water] + CCOCCCN |
